This is an account of results in patent US10214542B2, “Modified macrocyclic compounds” (BAYER PHARMA AKTIENGESELLSCHAFT, priority 2015, dated 2019).

The target of assay [1] is T1, CDK9/CycT1 (Homo sapiens, UniProt P50750).
T1 construct: Recombinant full-length His-tagged human CDK9 and CycT1; His; purchased Invitrogen PV4131; host or cells: insect cells
Put plainly: CDK9/CycT1 kinase assay (TR-FRET, Method 1a). The conditions noted are these: 10 μM ATP; for IC50: Method 1a; for Selectivity CDK9 over CDK2: IC50 (CDK2)/IC50 (CDK9): Methods 1a and 2a. In kind it is biochemical. An excerpt:
1a. CDK9/CycT1 Kinase Assay:
CDK9/CycT1-inhibitory activity of compounds of the present invention was quantified employing the CDK9/CycT1 TR-FRET assay as described in the following paragraphs:
Recombinant full-length His-tagged human CDK9 and CycT1, expressed in insect cells and purified by Ni-NTA affinity chromatography, were purchased from Invitrogen (Cat. No PV4131). As substrate for the kinase reaction biotinylated peptide biotin-Ttds-YISPLKSPYKISEG (C-terminus in amid form) was used which can be purchased e.g. from the company JERINI Peptide Technologies (Berlin, Germany).
(§1) For the assay 50 nl of a 100 fold concentrated solution of the test compound in DMSO was pipetted into a black low volume 384 well microtiter plate (Greiner Bio-One, Frickenhausen, Germany), 2 μl of a solution of CDK9/CycT1 in aqueous assay buffer [50 mM Tris/HCl pH 8.0, 10 mM MgCl2, 1.0 mM dithiothreitol, 0.1 mM sodium ortho-vanadate, 0.01% (v/v) Nonidet-P40 (Sigma)] were added and the mixture was incubated for 15 min at 22° C. to allow pre-binding of the test compounds to the enzyme before the start of the kinase reaction. […] The concentration of CDK9/CycT1 was adjusted depending of the activity of the enzyme lot and was chosen appropriate to have the assay in the linear range, typical concentrations were in the range of 1 μg/mL. The reaction was stopped by the addition of 5 μl of a solution of TR-FRET detection reagents (0.2 μM streptavidine-XL665 [Cisbio Bioassays, Codolet, France] and 1 nM anti-RB(pSer807/pSer811)-antibody from BD Pharmingen [#558389] and 1.2 nM LANCE EU-W1024 labeled anti-mouse IgG antibody [Perkin-Elmer, product no. AD0077]) in an aqueous EDTA-solution (100 mM EDTA, 0.2% (w/v) bovine serum albumin in 100 mM HEPES pH 7.5).
(§2) The resulting mixture was incubated 1 h at 22° C. to allow the formation of complex between the phosphorylated biotinylated peptide and the detection reagents. Subsequently the amount of phosphorylated substrate was evaluated by measurement of the resonance energy transfer from the Eu-chelate to the streptavidine-XL. Therefore, the fluorescence emissions at 620 nm and 665 nm after excitation at 350 nm was measured in a HTRF reader, e.g. a Rubystar (BMG Labtechnologies, Offenburg, Germany) or a Viewlux (Perkin-Elmer). The ratio of the emissions at 665 nm and at […] was taken as the measure for the amount of phosphorylated substrate. The data were normalised (enzyme reaction without inhibitor=0% inhibition, all other assay components but no enzym=100% inhibition).
A general note: TR-FRET usually uses a lanthanide donor and a delayed reading to cut background.

For another assay, the system named is A2780 cells. Put plainly: Proliferation assay, Cell Titre-Glo viability (Method 3). Conditions: Homo sapiens, A2780, 72 h, A2780, 72-hour exposure; read-out: Inhibition of A2780 cell proliferation IC50. In kind it is cell-based, human. As to the method: (§3) A2780 human ovarian carcinoma cells (ECACC #93112519) and non-adherent MOLM-13 human acute myeloid leukemia cells (DSMZ ACC 554) were seeded at a density of 3,000 cell/well (A2780) or 5,000 cells/well (MOLM-13) in a 96-well multititer plate in 150 μL of growth medium supplemented 10% fetal calf serum. After 24 hours, cell viability of one plate (zero-point plate) was determined with the Cell Titre-Glo Luminescent Cell Viability Assay (Promega), while the medium of the other plates was supplemented with the test substances in various concentrations (0 μM, as well as in the range of 0.0001-10 μM; the final concentration of the solvent dimethyl sulfoxide was adjusted to 0.1%) using a Hewlett-Packard HP D300 Digital Dispenser. Cell viability was assessed after 72-hour exposure with the Cell
(§4) Titre-Glo Luminescent Cell Viability Assay (Promega). IC50 values (inhibitory concentration at 50% of maximal effect) were determined by means of a 4 parameter fit on measurement data which were normalized to vehicle (DMSO) treated cells (=100%) and measurement readings taken immediately before compound exposure (=0%).

In assay [2] the target is T1, CDK9/CycT1. The assay can be described thus: CDK9/CycT1 high ATP kinase assay (TR-FRET, Method 1b). In kind it is biochemical. Conditions: 2 mM ATP; for IC50: Method 1b; for Selectivity high ATP CDK9 over high ATP CDK2: IC50 (high ATP CDK2)/IC50 (high ATP CDK9): Methods 1b and 2b. As to the method: 1b. CDK9/CycT1 High ATP Kinase Assay
CDK9/CycT1-inhibitory activity of compounds of the present invention at a high ATP concentration after preincubation of enzyme and test compounds was quantified employing the CDK9/CycT1 TR-FRET assay as described in the following paragraphs.
Recombinant full-length His-tagged human CDK9 and CycT1, expressed in insect cells and purified by Ni-NTA affinity chromatography, were purchase from Invitrogen (Cat. No PV4131). As substrate for the kinase reaction biotinylated peptide biotin-Ttds-YISPLKSPYKISEG (C-terminus in amid form) was used which can be purchased e.g. from the company JERINI peptide technologies (Berlin, Germany).
as §1, with “of 0.5” for “of 1”
as §2

A further assay concerns MOLM-13 cells. Put plainly: Proliferation assay, Cell Titre-Glo viability (Method 3). In kind it is cell-based. Conditions: Homo sapiens; MOLM-13, 72-hour exposure; read-out: Inhibition of MOLM-13 cell proliferation IC50. As to the method:
as §3, §4

A value given as a limit tells only on which side of the number the result lay.

T1 sequence (P50750 whole entry): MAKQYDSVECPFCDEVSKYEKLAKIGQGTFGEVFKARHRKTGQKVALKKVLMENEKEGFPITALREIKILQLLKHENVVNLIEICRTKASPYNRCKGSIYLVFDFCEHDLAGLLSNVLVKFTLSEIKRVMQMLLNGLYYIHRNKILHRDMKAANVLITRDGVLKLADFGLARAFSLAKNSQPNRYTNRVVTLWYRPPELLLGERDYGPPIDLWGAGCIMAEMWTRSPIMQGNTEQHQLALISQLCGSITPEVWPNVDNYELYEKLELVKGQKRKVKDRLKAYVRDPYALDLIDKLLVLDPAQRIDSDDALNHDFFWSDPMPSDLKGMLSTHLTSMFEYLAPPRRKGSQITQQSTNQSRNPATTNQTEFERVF
T1 sequence (O60563 whole entry partner): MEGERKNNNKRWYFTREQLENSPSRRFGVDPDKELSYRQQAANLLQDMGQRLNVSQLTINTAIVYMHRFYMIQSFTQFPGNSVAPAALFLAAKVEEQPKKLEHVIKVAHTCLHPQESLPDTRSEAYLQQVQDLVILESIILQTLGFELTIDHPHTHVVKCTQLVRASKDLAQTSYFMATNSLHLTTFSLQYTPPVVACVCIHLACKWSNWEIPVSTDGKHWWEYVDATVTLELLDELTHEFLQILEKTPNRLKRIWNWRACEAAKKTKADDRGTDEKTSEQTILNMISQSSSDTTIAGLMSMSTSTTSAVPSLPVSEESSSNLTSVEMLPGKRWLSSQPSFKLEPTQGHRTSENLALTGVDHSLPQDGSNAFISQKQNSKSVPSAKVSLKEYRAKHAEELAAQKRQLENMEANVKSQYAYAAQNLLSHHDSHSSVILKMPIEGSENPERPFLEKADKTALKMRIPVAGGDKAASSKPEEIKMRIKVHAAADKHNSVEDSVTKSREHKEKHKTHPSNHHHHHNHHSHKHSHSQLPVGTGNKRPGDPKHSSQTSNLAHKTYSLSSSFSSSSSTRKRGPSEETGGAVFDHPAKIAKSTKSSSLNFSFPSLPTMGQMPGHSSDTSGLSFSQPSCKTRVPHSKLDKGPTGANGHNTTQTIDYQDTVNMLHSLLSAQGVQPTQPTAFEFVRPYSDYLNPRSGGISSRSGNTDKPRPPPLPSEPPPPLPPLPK

As to `CS(=O)(Cc1cc2nc(c1)Nc1cc(c(F)cn1)-c1ccc(F)cc1OCCCCN2)=NC(=O)OCc1ccccc1` (racemic) [Example 2, (rac)-Benzyl[{[16,20-difluoro-3,4,5,6-tetrahydro-2H,12H-11,7-(azeno)-13,17-(metheno)-1,6,12,14-benzoxatriazacyclononadecin-9-yl]methyl}(methyl)oxido-λ^6-sulfanylidene]carbamate], the IC50 stood at 14.7 nM at CDK9/CycT1 [1], 38 nM in the assay with A2780 cells, 12.7 nM against CDK9/CycT1 [2] and 3 nM with MOLM-13 cells. In addition, the “Selectivity CDK9 over CDK2: IC50 (CDK2)/IC50 (CDK9)” value (shortened to “Selectivity CDK9 over CDK2: IC50”) on CDK9/CycT1 [1] is given as 47.5. For the same molecule, the “Selectivity high ATP CDK9 over high ATP CDK2: IC50 (high ATP CDK2)/IC50 (high ATP CDK9)” value (“Selectivity high ATP CDK9” below) at CDK9/CycT1 [2] is given as 634.
With `CS(=N)(=O)Cc1cc2nc(c1)Nc1cc(c(F)cn1)-c1ccc(F)cc1OCCCCN2` (racemic) [Example 3, (rac)-16,20-Difluoro-9-[(S-methylsulfonimidoyl)methyl]-3,4,5,6-tetrahydro-2H,12H-11,7-(azeno)-13,17-(metheno)-1,6,12,14-benzoxatriazacyclononadecine], the IC50 is 8.3 nM at CDK9/CycT1 [1], 5.5 nM in the assay on A2780 cells, 3.9 nM against CDK9/CycT1 [2] and 3.4 nM with MOLM-13 cells. Moreover, the “Selectivity CDK9 over CDK2: IC50” value at CDK9/CycT1 [1] is given as 5.3. Besides, on CDK9/CycT1 [2], the “Selectivity high ATP CDK9” value is 167.
Turning to `C[S+]([O-])Cc1cc2nc(c1)OCCCCc1cc(F)ccc1-c1cc(ncc1F)N2` (racemic) [Example 5, (rac)-2,18-Difluoro-9-[(methylsulfinyl)methyl]-13,14,15,16-tetrahydro-6H-7,11-(azeno)-5,1-(metheno)-12,4,6-benzoxadiazacyclooctadecine], the IC50 turned out to be 6.2 nM against CDK9/CycT1 [1], 270 nM in the assay on A2780 cells, 6 nM on CDK9/CycT1 [2] and 24 nM in the assay on MOLM-13 cells. For the same molecule, the “Selectivity CDK9 over CDK2: IC50” value on CDK9/CycT1 [1] is 44.4. Besides, the “Selectivity high ATP CDK9” value on CDK9/CycT1 [2] was determined as 1375.
As to `CC(C)(C)OC(=O)N=S(C)(=O)Cc1cc2nc(c1)Nc1cc(c(F)cn1)-c1ccc(F)cc1OCCCN2` (racemic) [Example 7, (rac)-tert-butyl[{[15,19-difluoro-2,3,4,5-tetrahydro-11H-10,6-(azeno)-16,12-(metheno)-1,5,11,13-benzoxatriazacyclooctadecin-8-yl]methyl}(methyl)oxido-λ^6-sulfanylidene]carbamate], the IC50 at CDK9/CycT1 [1] worked out at 7.5 nM; in the assay on A2780 cells it was 7 nM; on CDK9/CycT1 [2] it was 1.9 nM; in the assay on MOLM-13 cells it was 6.8 nM. For the same molecule, at CDK9/CycT1 [1], the “Selectivity CDK9 over CDK2: IC50” value is given as 3.6. Moreover, the “Selectivity high ATP CDK9” value at CDK9/CycT1 [2] is on record as 32.1.
`CC(C)(C)OC(=O)N=S(C)(=O)Cc1cc2cc(c1)OCCCCSc1cc(F)ccc1-c1nc(ncc1F)N2` (racemic) [Example 21, (rac)-tert-butyl[{[16,20-difluoro-2,3,4,5-tetrahydro-12H-17,13-(azeno)-11,7-(metheno)-6,1,12,14-benzoxathiadiazacyclononadecin-9-yl]methyl}(methyl)oxido-λ^6-sulfanylidene]carbamate]: the IC50 was greater than 100 nM in the assay on A2780 cells, 13 nM against CDK9/CycT1 [2] and 162 nM in the assay on MOLM-13 cells. The “Selectivity high ATP CDK9” value on CDK9/CycT1 [2] is 915.
Taken in the same sequence, the figures for `CS(=N)(=O)Cc1cc2cc(c1)OCCCCSc1cc(F)ccc1-c1nc(ncc1F)N2` (racemic) [Example 22, (rac)-16,20-difluoro-9-[(S-methylsulfonimidoyl)methyl]-2,3,4,5-tetrahydro-12H-17,13-(azeno)-11,7-(metheno)-6,1,12,14-benzoxathiadiazacyclononadecine] were 45 nM, 4.5 nM, 23 nM and 244.
As to `CC(C)(C)OC(=O)N=S(C)(=O)Cc1cc2cc(c1)Nc1ncc(F)c(n1)-c1ccc(F)cc1OCCCCN2` (racemic) [Example 24, (rac)-tert-butyl[{[16,20-difluoro-3,4,5,6-tetrahydro-2H,12H-13,17-(azeno)-11,7-(metheno)-1,6,12,14-benzoxatriazacyclononadecin-9-yl]methyl}(methyl)oxido-λ^6-sulfanylidene]carbamate], on CDK9/CycT1 [1], the IC50 turned out to be 91 nM and the “Selectivity CDK9 over CDK2: IC50” value is listed as 28.2. On CDK9/CycT1 [2], the IC50 stood at 44 nM and the “Selectivity high ATP CDK9” value is reported as greater than 454.
In the case of `CSCc1cc2nc(c1)OCCCCc1cc(F)ccc1-c1cc(ncc1F)N2` [Example 4, 2,18-Difluoro-9-[(methylsulfanyl)methyl]-13,14,15,16-tetrahydro-6H-7,11-(azeno)-5,1-(metheno)-12,4,6-benzoxadiazacyclooctadecine], the IC50 stood at 36 nM against CDK9/CycT1 [1], 323 nM at CDK9/CycT1 [2] and 970 nM with MOLM-13 cells. Besides, on CDK9/CycT1 [1], the “Selectivity CDK9 over CDK2: IC50” value is listed as greater than 556. Also, on CDK9/CycT1 [2], the “Selectivity high ATP CDK9” value is greater than 61.9.
As for `CSCc1cc2nc(c1)OCCCCCc1cc(F)ccc1-c1cc(ncc1F)N2` [Example 18, 2,19-difluoro-9-[(methylsulfanyl)methyl]-14,15,16,17-tetrahydro-6H,13H-7,11-(azeno)-5,1-(metheno)-12,4,6-benzoxadiazacyclononadecine], on CDK9/CycT1 [1], the IC50 came to 99 nM and the “Selectivity CDK9 over CDK2: IC50” value is 25.9. In the assay on A2780 cells, the IC50 was greater than 100 nM. In addition, on CDK9/CycT1 [2], the IC50 came to 246 nM and the “Selectivity high ATP CDK9” value is greater than 81.3.
